# Literature values in patent publication US20230226006A1, “Compositions for the Treatment of Dry Eye and Methods of Use Thereof” (The Schepens Eye Research Institute, Inc., priority 2017, published 2023).
compound,measurement,setting,value
"C=CCN=C=S [Allyl isothiocyanate, 3-Isothiocyanato-1-propene]",Solubility in organic solvents,organic solvents,well soluble
same,Solubility in water,water,slightly soluble
